Values quoted from earlier work in paper PMC12238723, “Phase I Clinical Trial of CVL218, a Novel PARP1/2 Inhibitor, in Patients with Advanced Solid Tumors” (MedComm, 2025).

Tests used:
[1] = system: patients; settings: cited from earlier work
[2] = design: method as in PMID 37806255; settings: recommended dose of 300 mg BID; cited from earlier work

SMILES	grade ≥3 anemia incidence [1]	increased risk of MDS/AML compared with placebo [1] [%]	median Tmax [2] [h]	incidence of MDS/AML [1]	incidence of anemia [1] [%]	occurrence of grade ≥3 anemia [1]	overall incidence of grade ≥3 AEs [1]	rate of dose reduction due to AEs [1]	treatment discontinuation rates [1]	grade ≥3 gastrointestinal AEs ([1]; comparison value, no reference given) [%]
NC(=O)c1cccc2cn(-c3ccc([C@@H]4CCCNC4)cc3)nc12 [niraparib]	14.7–22.5%	48	–	–	–	–	–	–	–	–
O=C(c1cc(Cc2n[nH]c(=O)c3ccccc23)ccc1F)N1CCN(C(=O)C2CC2)CC1 [olaparib, Olaparib]	–	158	1.5	approximately 1%	21 to 46	5.1–22%	36–40%	25–29%	6–17%	4.3
